Data from PubChem BioAssay AID1996.
Converted amounts (≈) assume the structure as drawn.

Details: buffer; pH 7.4; 200.0 µM

Compound	solubility kinetic
Cc1ccc(S(=O)(=O)N2CCN(C3CC(=O)N(c4ccc(F)cc4)C3=O)CC2)cc1C (centres undefined)	52.5 µg/mL (≈ 118 µM)
CCOC(=O)CCN1C(=O)c2ccccc2Sc2ncccc21	> 49.3 µg/mL
COc1ccc([N+](=O)[O-])cc1NC(=O)COC(=O)Cn1cnc2ccccc2c1=O	> 61.9 µg/mL
CN(C)S(=O)(=O)c1cccc(NC(=O)CCCC2CCCCC2)c1	8.2 µg/mL (≈ 23.3 µM)
CCN(CC)C(=O)c1c(-c2ccccc2)oc2ccc(O)cc12	31.8 µg/mL (≈ 103 µM)
CCCNC(=O)CSc1nc(Cc2ccccc2)nc2ccccc12	8.2 µg/mL (≈ 23.3 µM)
CCOC(=O)NC(=O)CN1C(=O)NC2(CCc3ccccc32)C1=O (centres undefined)	> 49.7 µg/mL
COc1ccc(CCc2nc(-c3cccs3)no2)cc1	2.3 µg/mL (≈ 8.03 µM)
Cn1c(Nc2cccc(Cl)c2)nc2ccccc21	5.5 µg/mL (≈ 21.3 µM)
Cc1nc2ccccc2n1CC(=O)OCC(=O)N1CCC(C)CC1	> 49.4 µg/mL
O=C(COC(=O)Cc1ccsc1)Nc1cccc(F)c1	> 44 µg/mL
NC(=O)COc1ccc2oc(-c3ccccc3)cc(=O)c2c1	1.1 µg/mL (≈ 3.73 µM)
CCOC(=O)C1CCCCN1Cc1cn(C)nc1-c1ccccc1F (centres undefined)	> 51.8 µg/mL
O=C(NCC(O)COc1ccc([N+](=O)[O-])cc1)c1ccccc1 (centres undefined)	24.8 µg/mL (≈ 78.4 µM)
CC(=O)c1cccc(NC(=O)NC(C)c2ccc3c(c2)OCO3)c1 (centres undefined)	6.9 µg/mL (≈ 21.1 µM)
S=C1CSc2ccccc2N1	25.1 µg/mL (≈ 138 µM)
O=C1CCCC(=O)N1c1ccc(N2CCOCC2)c([N+](=O)[O-])c1	> 47.9 µg/mL
CCOC(=O)N1CCN(CC(=O)Nc2sccc2C#N)CC1	> 48.4 µg/mL
CC(NC(=O)c1c(O)c2ccccc2[nH]c1=O)c1ccccc1 (centres undefined)	< 0.3 µg/mL
Cc1[nH]c(C(=O)O)c(C#N)c1C(=O)c1ccccc1	> 38.1 µg/mL

Compound	solubility kinetic
CCC(=O)N1CCN=C1SCc1c(F)cccc1Cl	12.6 µg/mL (≈ 41.9 µM)
CCc1ccc(C2NC(=O)c3ccccc3O2)cc1 (centres undefined)	2.8 µg/mL (≈ 11.1 µM)
Cc1cc(=O)oc2cc(NC(=O)Cc3ccccc3)ccc12	1.1 µg/mL (≈ 3.75 µM)
CCOC(=O)N1CCN(S(=O)(=O)c2ccc3c4c(cccc24)C(=O)N3)CC1	3.6 µg/mL (≈ 9.24 µM)
Cc1ccc(S(=O)(=O)n2cnc3ccccc32)cc1[N+](=O)[O-]	> 47.6 µg/mL
CC(=O)Nc1ccc(OCCOc2ccccc2C(C)=O)cc1	> 47 µg/mL
Cc1ccc(CNC(=O)c2c(-c3ccccc3)noc2C)cc1	2.1 µg/mL (≈ 6.85 µM)
Cn1c(C2=C(O)CN(Cc3ccccc3)C2=N)nc2ccccc21	> 47.8 µg/mL
CC(=O)c1ccc(NC(=O)C2CC2c2ccccc2)cc1 (centres undefined)	9.4 µg/mL (≈ 33.7 µM)
Cc1ccc(C)c(NC(=O)C(C)N2C(=O)c3ccccc3C2=O)c1 (centres undefined)	21 µg/mL (≈ 65.1 µM)
COc1ccc(C=C(C#N)C#N)c(CSc2ccccn2)c1	2.1 µg/mL (≈ 6.83 µM)
O=C(NCCc1c[nH]c2ccccc12)c1ccc(Cl)cc1	5.2 µg/mL (≈ 17.4 µM)
Cc1cc(C)c2sc(N)nc2c1	25.1 µg/mL (≈ 141 µM)
COc1ccc(C(=O)NC(C)C2CC3CCC2C3)c(OC)c1 (centres undefined)	> 45.5 µg/mL
CC(=O)Nc1ccc(S(=O)(=O)N(C#N)c2nc(C)cc(C)n2)cc1	> 51.8 µg/mL
O=C(NCCc1ccco1)c1ccc(OCc2cn3ccccc3n2)cc1	> 54.2 µg/mL
CC1CC(O)C(C)CN1 (centres undefined)	> 19.4 µg/mL
CN(C)CCCNc1c2ccccc2nc2ccccc12	> 41.9 µg/mL
CC(=O)N(CCCN(C)C)c1nc2ccc(C)cc2s1.Cl	> 49.2 µg/mL
CC(=O)N=c1scc(-c2ccccc2)n1-c1cccc(O)c1	2.6 µg/mL (≈ 8.38 µM)

Compound	solubility kinetic
CCOC(=O)c1cc(-c2csc(-c3cccc(Cl)c3)n2)on1	< 0.4 µg/mL
O=C(NC1CCCCC1)NC1C2CC3CC(C2)CC1C3 (centres undefined)	2.3 µg/mL (≈ 8.32 µM)
O=C(CSCc1ccccc1Cl)Nc1ccc(C(=O)O)cc1	> 50.4 µg/mL
COc1cccc(N2CCN(C(=O)c3ccc(-c4ccccc4)cc3)CC2)c1	0.8 µg/mL (≈ 2.15 µM)
O=C(O)CCC(NC(=S)Nc1ccccc1)C(=O)O (centres undefined)	> 42.3 µg/mL
O=C1C(Cl)=C(NCc2cccnc2)C(=O)c2ccccc21	6.9 µg/mL (≈ 23.1 µM)
COc1ccc(NC(=O)NC2(C(=O)N3CCCC3)CCCCC2)cc1	24 µg/mL (≈ 69.5 µM)
c1ccc(NCc2ccccn2)cc1	24.6 µg/mL (≈ 134 µM)
N#C/C(=C/c1ccc(O)cc1)C(=O)NCc1ccc(Cl)cc1	4.3 µg/mL (≈ 13.7 µM)
CCOc1ccccc1NC(=O)N1CCc2ccccc2C1	33.1 µg/mL (≈ 112 µM)
COc1ccccc1CCNC1CCCCCC1	> 37.1 µg/mL
COC(=O)C1=C(Nc2cc(Cl)cc(Cl)c2)CSC1	< 0.7 µg/mL
O=C(C1CCN(S(=O)(=O)c2c(Cl)cccc2Cl)CC1)N1CCCC1	> 58.7 µg/mL
O=C(CN1C(=O)NC2(CCOc3ccccc32)C1=O)N1CCCCC1 (centres undefined)	> 51.5 µg/mL
COc1ccc(-c2cc(-c3ccc(O)cc3)nc(N)c2C#N)cc1	0.8 µg/mL (≈ 2.52 µM)
CCOC(=O)c1sc(=S)n(CC)c1NC(=O)c1ccccc1	8.8 µg/mL (≈ 26.2 µM)
S=C(NCCCCc1ccccc1)NCc1ccccc1	7 µg/mL (≈ 23.5 µM)
CCOc1ccc2nc(NS(=O)(=O)c3cccs3)sc2c1	9.9 µg/mL (≈ 29.1 µM)
COc1ccc(-n2c(=S)[nH]c3ncccc3c2=O)cc1	1.5 µg/mL (≈ 5.26 µM)
